# Results reported in patent publication US20030207813A1, “Retroviral protease inhibitor combinations” (priority 1995, published 2003).
# Like-named read-outs stand apart in the source and are kept apart here.
# Experiments:
# HIV-1RF = test: CEM-T4 cell infection assay, reverse transcriptase readout, isolate RF; type: cell-based; details: Human immunodeficiency virus 1, CEM-T4, 168 h, Table 6, CEM-T4 cells, 7 days, read-out: Virus Isolate (EC50 ng/mL) RF
# Excerpt: (§1) RF represents the HIV-1 strain HIV-LRF and RFR represents a mixture of resistant strains obtained by selection of RF against the compound of Example 1. RFR comprises a mixture of viral strains having protease genotypes of G48V (14/40 clones); G48V, V82A (18/40 clones); G48V, L90S (2/40 clones); G48V, 154T, V82A (1/40 clones); G48M (1/40 clones); G48V, Q61H (1/40 clones); V13I, G48V (1/40 clones); G48V, F53L, V82A (1/40 clones); and G48V, V82A, C95Y (1/40 clones). RFR2 represents a mixture of resistant strains obtained by cloning RFR by three rounds of growth at limiting dilution. RFR2 comprises a mixture of viral strains having protease genotypes of G48V, V82A (13/15 clones); G17E, G48V, V82A (1/15 clones); and G48V, V82A, N37D, N88D (1/15 clones). RFRR represents a mixture of resistant strains obtained by selection of RF against the compounds of Examples 1 and 2 and then cloning by three rounds of growth at limiting dilution. RFRR comprises a mixture of viral strains having protease genotypes of G48V, 154T, L63P, V82A (7/9 clones); G48V, 154T, L63P, V82A, N88S (1/9 clones); and G48V, 154T, L63P, G73M, V82A (1/9 clones). SF162 represents the HIV-1 strain SF-162 and SF162R represents a mixture of resistant strains obtained by selection of SF162 against the compound of Example 1. SF162R comprises a mixture of viral strains having protease genotypes of M461, F53L, L63P, A71V, N88D (2/3 clones); and M46I, F53L, L63P, A71V, N88D, Q92R (1/3 clones). 89-959 represents the HIV-1 strain 89-959 and 89-959R represents a mixture of resistant strains obtained by selection of 89-959 against the compound of Example 2. 89-959R comprises a mixture of viral strains having protease genotypes of N88S (4/5 clones); and D25N, T26A, D30N, D37N, R41K, G73D, R87K, N88S (1/4 clones). NL4 represents the HIV-1 strain HIV-1NL4-3. NL4(G48V) represents a strain having a synthetically generated site-directed mutation in the protease from glycine to valine at amino acid position number 48. NL4(I84V) represents a strain having a synthetically generated site-directed mutation in the protease from isoleucine to valine at amino acid position number 84. NL4(R8Q,M46I) represents a strain having synthetically generated site-directed mutations in the protease from arginine to glutamine at amino acid position number 8 and methionine to isoleucine at amino acid position number 46. NL4(P22-538) represents a mixture of resistant strains obtained by selection of HIV-1NL4-3 against the compound of Example 10 after 22 passages comprising protease genotypes M46I, L63P, A71V, V82F, I84V (4/10); M46I, L63P, V82F, I84V (3/10); and M46I, A71V, V82F, I84V (3/10). NL4(P37-538) represents resistant strains obtained by selection of HIV-1NL4-3 against the compound of Example 10 after 37 passages comprising protease genotype M46I, L63P, A71V, 184A. NL4(538/524) represents resistant strains obtained by selection of NL4(P22-538) against the compound of Example 5 after 24 passages comprising protease genotype M46I, L63P, A71V, 184A. NL4(538/P7-AG) represents a mixture of resistant strains obtained by selection of NL4(P22-538) against the compound of Example 12 after 7 passages comprising protease genotypes M46I, L63P, A71V, 184A; and V321, V82I. NL4(538/P24-AG) represents resistant strains obtained by selection of NL4(P22-538) against the compound of Example 12 after 24 passages comprising protease genotype M46I, L63P, A71V, 184A. NLA(P19-003) represents resistant strains obtained by selection of HIV-1^NL4-3 against the compound of Example 9 after 19 passages comprising protease genotype R8K, M46I. NL4(P34-003) represents resistant strains obtained by selection of HIV-1^NL4-3 against the compound of Example 9 after 34 passages comprising protease genotype R8K, M46I, L63P, A71V, L90M.
# (§2) The viral isolate resistance results summarized in Tables 4-6 were generated according to the following assay procedure or minor modifications thereof. Assays are performed in 96-well tissue culture plates. […]
# [1] = system: RFRR (resistant strains selected from RF against Examples 1 and 2); test: CEM-T4 cell infection assay, reverse transcriptase readout, resistant isolate RFRR; type: cell-based, HIV-1; details: Human immunodeficiency virus 1, 168 h, Table 6, CEM-T4 cells, 7 days, read-out: Virus Isolate (EC50 ng/mL) RFRR
# Excerpt: as §1, §2
# NL4(P37-538) = test: Viral isolate resistance assay per Markowitz et al., NL4(P37-538); type: cell-based, HIV-1
# Excerpt: as §1
# The viral isolate resistance results summarized in Tables 7-11 were generated according to the assay procedures described by Markowitz et al., Journal of Virology, vol. […]
# [2] = system: RFR2 (RFR cloned by three rounds of limiting dilution); test: CEM-T4 cell infection assay, reverse transcriptase readout, resistant isolate RFR2; type: cell-based, HIV-1; details: Human immunodeficiency virus 1, 168 h, Table 6, CEM-T4 cells, 7 days, read-out: Virus Isolate (EC50 ng/mL) RFR2
# Excerpt: as §1, §2
# NL4(I84V) = test: Viral isolate resistance assay per Markowitz et al., NL4(I84V); type: cell-based, HIV-1; details: Human immunodeficiency virus 1, Table 7
# Excerpt: (§3) RF represents the HIV-1 strain HIV-LRF and RFR represents a mixture of resistant strains obtained by selection of RF against the compound of Example 1. […] RFR2 represents a mixture of resistant strains obtained by cloning RFR by three rounds of growth at limiting dilution. […] RFRR represents a mixture of resistant strains obtained by selection of RF against the compounds of Examples 1 and 2 and then cloning by three rounds of growth at limiting dilution. […] SF162 represents the HIV-1 strain SF-162 and SF162R represents a mixture of resistant strains obtained by selection of SF162 against the compound of Example 1. […] 89-959 represents the HIV-1 strain 89-959 and 89-959R represents a mixture of resistant strains obtained by selection of 89-959 against the compound of Example 2. […] NL4 represents the HIV-1 strain HIV-1NL4-3. NL4(G48V) represents a strain having a synthetically generated site-directed mutation in the protease from glycine to valine at amino acid position number 48. NL4(I84V) represents a strain having a synthetically generated site-directed mutation in the protease from isoleucine to valine at amino acid position number 84. NL4(R8Q,M46I) represents a strain having synthetically generated site-directed mutations in the protease from arginine to glutamine at amino acid position number 8 and methionine to isoleucine at amino acid position number 46.
# HIV-1NL4-3 = test: microbe, parasite or virus in culture; type: cell-based; details: Human immunodeficiency virus 1, NL4; for EC90: Table 7, read-out: Virus Isolate (EC90 nM) NL4; for EC50: read-out: Virus Isolate (EC50 nM) NL4
# Excerpt: as §3
# NL4(P22-538) = test: Viral isolate resistance assay per Markowitz et al., NL4(P22-538); type: cell-based, HIV-1; details: Human immunodeficiency virus 1, read-out: Virus Isolate (EC50 nM) NL4(P22-538)
# Excerpt: as §1, with “NLA(P19-003) represents resistant strains obtained by selection of HIV-1^NL4-3 against the compound of Example 9 after 19 passages comprising protease genotype R8K, M46I. NL4(P34-003) represents resistant strains obtained by selection of HIV-1^NL4-3 against the compound of Example 9 after 34 passages comprising protease genotype R8K, M46I, L63P, A71V, L90M.” left out
# NL4(538/P7-AG) = test: Viral isolate resistance assay per Markowitz et al., NL4(538/P7-AG); type: cell-based, HIV-1; details: Human immunodeficiency virus 1; Table 10; NL4(P22-538) selected against Example 12, 7 passages
# Excerpt: as §1, with “NLA(P19-003) represents resistant strains obtained by selection of HIV-1^NL4-3 against the compound of Example 9 after 19 passages comprising protease genotype R8K, M46I. NL4(P34-003) represents resistant strains obtained by selection of HIV-1^NL4-3 against the compound of Example 9 after 34 passages comprising protease genotype R8K, M46I, L63P, A71V, L90M.” left out
# NL4(538/P24-AG) = test: Viral isolate resistance assay per Markowitz et al., NL4(538/P24-AG); type: cell-based, HIV-1; details: Human immunodeficiency virus 1; Table 10; NL4(P22-538) selected against Example 12, 24 passages
# Excerpt: as §1, with “NLA(P19-003) represents resistant strains obtained by selection of HIV-1^NL4-3 against the compound of Example 9 after 19 passages comprising protease genotype R8K, M46I. NL4(P34-003) represents resistant strains obtained by selection of HIV-1^NL4-3 against the compound of Example 9 after 34 passages comprising protease genotype R8K, M46I, L63P, A71V, L90M.” left out
# NL4(538/524) = test: Viral isolate resistance assay per Markowitz et al., NL4(538/524); type: cell-based, HIV-1; details: Human immunodeficiency virus 1; Table 10; NL4(P22-538) selected against Example 5, 24 passages
# Excerpt: as §1, with “NLA(P19-003) represents resistant strains obtained by selection of HIV-1^NL4-3 against the compound of Example 9 after 19 passages comprising protease genotype R8K, M46I. NL4(P34-003) represents resistant strains obtained by selection of HIV-1^NL4-3 against the compound of Example 9 after 34 passages comprising protease genotype R8K, M46I, L63P, A71V, L90M.” left out
# [3] = Human immunodeficiency virus 1, read-out: Virus Isolate (EC50 nM) NL4(P37-538)
compound,measurement,setting,value
"CC(C)CN(C[C@@H](O)[C@H](Cc1ccccc1)NC(=O)[C@@H](NC(=O)CN1CCCC1)C(C)(C)C)S(=O)(=O)c1ccc2c(c1)OCO2 [Example 14, N-[2R-hydroxy-3-[[(1,3-benzodioxol-5-yl)sulfonyl](2-methylpropyl)amino]-1S-(phenylmethyl)propyl]-2S-[[(pyrrolidin-1-yl)acetyl]amino]-3,3-dimethylbutanamide]",EC50,HIV-1RF,1 ng/mL
same,EC50,[1],39 ng/mL
same,EC50,NL4(P37-538); [3],1000 nM
same,EC50,[2],6 ng/mL
same,EC90,NL4(I84V),72 nM
same,EC90,HIV-1NL4-3,8 nM
same,EC50,HIV-1NL4-3; Table 9,60 nM
"CC(C)CN(C[C@@H](O)[C@H](Cc1ccccc1)NC(=O)[C@H](C)CS(C)(=O)=O)S(=O)(=O)c1ccc2c(c1)OCO2 [Example 15, N-[2R-hydroxy-3-[(2-methylpropyl)[(1,3-benzodioxol-5-yl)sulfonyl]amino]-1S-(phenylmethyl)propyl]2S-methyl-3-(methylsulfonyl)propanamide]",EC50,HIV-1RF,5 ng/mL
same,EC50,NL4(P22-538),400 nM
same,EC50,[1],21 ng/mL
same,EC50,NL4(P37-538); [3],1000 nM
same,EC50,[2],9 ng/mL
same,EC90,HIV-1NL4-3,60 nM
same,EC50,HIV-1NL4-3; Table 9,8 nM
"CNCC(=O)N[C@H](C(=O)N[C@@H](Cc1ccccc1)[C@H](O)CN(CC(C)C)S(=O)(=O)c1ccc2c(c1)OCO2)C(C)(C)C [Example 16, 2S-[[(N-methylamino)acetyl]amino]-N-[2R-hydroxy-3-[[(1,3-benzodioxol-5-yl)sulfonyl](2-methylpropyl)amino]-1S-(phenylmethyl)propyl]-3.3-dimethylbutanamide]",EC50,HIV-1RF,3 ng/mL
same,EC50,[1],9 ng/mL
same,EC50,"NL4(P37-538); Human immunodeficiency virus 1, Table 9, selected against Example 10, 37 passages, read-out: Virus Isolate (EC50 nM) NL4(P37-538)",40 nM
same,EC50,NL4(538/P7-AG),40 nM
same,EC50,[2],1 ng/mL
same,EC50,NL4(538/P24-AG),40 nM
same,EC50,NL4(538/524),40 nM
same,EC90,HIV-1NL4-3,8 nM
same,EC50,HIV-1NL4-3; Table 8,8 nM
